Patent US10208040B2, “Fused imidazo-piperidine JAK inhibitors” (THERAVANCE BIOPHARMA R&D IP, LLC, priority 2017, dated 2019)

Tests used:
Type in all cases: cell-based
[1] = test system: IL-2/anti-CD3 stimulated IFNγ in human PBMCs; assay: Inhibition of IL-2/anti-CD3 stimulated IFNγ in human PBMCs; conditions: PBMC, read-out: pIC50 inhibition of IL-2/anti-CD3 stimulated IFNγ (converted)
Protocol: (§1) The potency of the test compound for inhibition of interleukin-2 (IL-2)/anti-CD3 stimulated interferon gamma (IFNγ) was measured in human peripheral blood mononuclear cells (PBMCs) isolated from human whole blood (Stanford Blood Center). Because IL-2 signals through JAK, this assay provides a measure of JAK cellular potency.
(1) Human peripheral blood mononuclear cells (PBMC) were isolated from human whole blood of healthy donors using a ficoll gradient. Cells were cultured in a 37° C., 5% CO2 humidified incubator in RPMI (Life Technologies) supplemented with 10% Heat Inactivated Fetal Bovine Serum (FBS, Life Technologies), 2 mM Glutamax (Life Technologies), 25 mM HEPES (Life Technologies) and 1× Pen/Strep (Life Technologies). Cells were seeded at 200,000 cells/well in media (50 μL) and cultured for 1 h. Compounds were serially diluted in DMSO and then diluted another 500-fold (to a 2× final assay concentration) in media. Test compounds (100 μL/well) were added to cells, and incubated at 37° C., 5% CO2 for 1 h, followed by the addition of IL-2 (R&D Systems; final concentration 100 ng/mL) and anti-CD3 (BD Biosciences; final concentration 1 μg/mL) in pre-warmed assay media (50 μL) for 24 h.
(2) After cytokine stimulation, cells were centrifuged at 500 g for 5 min and supernatants removed and frozen at −80° C. To determine the inhibitory potency of the test compound in response to IL-2/anti-CD3, supernatant IFNγ concentrations were measured via ELISA (R&D Systems). IC50 values were determined from analysis of the inhibition curves of concentration of IFNγ vs compound concentration. Data are expressed as pIC50 (negative decadic logarithm IC50) values.

[2] = test system: IL-2/anti-CD3 stimulated STAT5 phosphorylation in CD4+ T cells; assay: Inhibition of IL-2 stimulated pSTAT5 in CD4+ T cells; conditions: CD4+ T cells in human PBMCs; read-out: pIC50 inhibition of IL-2 stimulated pSTAT5 (converted)
Protocol: as §1, with “STATS phosphorylation” for “interferon gamma (IFNγ)”, “measured in CD4-positive (CD4+) T cells” for “measured”, “Center) using flow cytometry.” for “Center).”
CD4+ T cells were identified using a […] (PE) conjugated anti-CD4 antibody (Clone RPA-T4, BD Biosciences), while an Alexa Fluor 647 conjugated anti-pSTAT5 antibody (pY694, Clone 47, BD Biosciences) was used to detect STATS phosphorylation.
(1) The protocol of Assay 7 paragraph (1) was followed with the exception that the cytokine stimulation with anti-CD3 was performed for 30 min instead of 24 h.
(2) After cytokine stimulation, cells were fixed with pre warmed fix solution (200 μL; BD Biosciences) for 10 min at 37° C., 5% CO2, washed twice with DPBS buffer (1 mL, Life Technologies), and resuspended in ice cold Perm Buffer III (1000 μL, BD Biosciences) for 30 min at 4° C. Cells were washed twice with 2% FBS in DPBS (FACS buffer), and then resuspended in FACS buffer (100 μL) containing anti-CD4 PE (1:50 dilution) and anti-CD3 […] (1:5 dilution) for 60 min at room temperature in the dark. After incubation, cells were washed twice in FACS buffer before being analyzed using a LSRII flow cytometer (BD Biosciences). To determine the inhibitory potency of test compounds in response to IL-2/anti-CD3, the median fluorescent intensity (MFI) of pSTAT5 was measured in CD4+ T cells. IC50 values were determined from analysis of the inhibition curves of MFI vs compound concentration. Data are expressed as pIC50 (negative decadic logarithm IC50) values.

[3] = test system: IL-4 stimulated STAT6 phosphorylation in CD3+ T cells; assay: Inhibition of IL-4 stimulated pSTAT6 in CD3+ T cells; conditions: T-cell; CD3+ T cells in human PBMCs; read-out: pIC50 inhibition of IL-4 stimulated pSTAT6 (converted)
Protocol: The potency of the test compound for inhibition of interleukin-4 (IL-4) stimulated STAT6 phosphorylation was measured in CD3-positive (CD3+) T cells in human peripheral blood mononuclear cells (PBMCs) isolated from human whole blood (Stanford Blood Center) using flow cytometry. Because IL-4 signals through JAK, this assay provides a measure of JAK cellular potency.
CD3+ T cells were identified using a […] (PE) conjugated anti-CD3 antibody (Clone UCHT1, BD Biosciences), while an Alexa Fluor 647 conjugated anti-pSTAT6 antibody (pY641, Clone 18/P, BD Biosciences) was used to detect STAT6 phosphorylation.
Human peripheral blood mononuclear cells (PBMC) were isolated from human whole blood of healthy donors as in Assays 7 and 8. […] After incubation, cells were washed twice in FACS buffer before being analyzed using a LSRII flow cytometer (BD Biosciences).
To determine the inhibitory potency of the test compound in response to IL-4, the median fluorescent intensity (MFI) of pSTAT6 was measured in CD3+ T cells. IC50 values were determined from analysis of the inhibition curves of MFI vs compound concentration. Data are expressed as pIC50 (negative decadic logarithm IC50).

SMILES	IC50 [1] [nM]	IC50 [2] [nM]	IC50 [3] [nM]
CCc1cc(O)c(F)cc1-c1ccc2c(-c3nc4c([nH]3)CN(CC)[C@@H](C(=O)N3CCN(C(C)(C)C)CC3)C4)n[nH]c2c1 [Example 1-37]	~63.1	~7.94	
CCCN1Cc2[nH]c(-c3n[nH]c4cc(-c5cc(F)c(O)cc5CC)ccc34)nc2C[C@H]1C(=O)N1C[C@@H]2C[C@H]1CN2C [Example 1, ((S)-2-(6-(2-ethyl-5-fluoro-4-hydroxyphenyl)-1H-indazol-3-yl)-5-propyl-4,5,6,7-tetrahydro-3H-imidazo[4,5-c]pyridin-6-yl)((1S,4S)-5-methyl-2,5-diazabicyclo-[2.2.1]heptan-2-yl)methanone]	~126	~50.1	20
CCc1cc(O)c(F)cc1-c1ccc2c(-c3nc4c([nH]3)CN(C(C)C)[C@H](C(=O)N3CC[C@H](N(C)C)C3)C4)n[nH]c2c1 [Example 3]	~63.1	~20	10
